{"source": "PubChem BioAssay AID2060609", "about": "(Molecular Pharmacology Branch, DTP, NCI, 2025);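 also: spheroids exposed to drugs for seven days before readout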;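 as to viability, T/C: 100% = DMSO vehicle control wells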", "system": "855422-203-R-J1-PDC complex spheroids, viability", "experiment": "Anticancer human tumor 855422-203-R-J1-PDC patient-derived bladder carcinoma cell line growth inhibition [CLK]", "conditions": "for IC50: curve of first compound; for viability, T/C: stronger effect = lower value", "procedure,_shortened": "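Patient-derived tumor cells grown as complex spheroids with HUVEC endothelial cells and mesenchymal stem cells, treated with drug combinations. Concentrations descend in half-log steps from near clinical Cmax, or from 10 microM if Cmax unknown.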", "data": [{"smiles": "Cn1ncnc1[C@H]1c2n[nH]c(=O)c3cc(F)cc(c23)N[C@@H]1c1ccc(F)cc1", "note": "+ CN1CCN(c2cc(C(=O)Nc3cc4cc(-c5cnn(C)c5)ccc4cn3)ccn2)CC1", "values": [{"measurement": "IC50", "setting": "second compound 0.0316 µM", "result": "> 100", "unit": "nM"}, {"measurement": "IC50", "setting": "second compound 0.1 µM", "result": "> 100", "unit": "nM"}, {"measurement": "IC50", "setting": "second compound 0.316 µM", "result": "< 0.316", "unit": "nM"}, {"measurement": "IC50", "setting": "second compound 1 µM", "result": "< 0.316", "unit": "nM"}, {"measurement": "IC50", "setting": "second compound 3.16 µM", "result": "< 0.316", "unit": "nM"}, {"measurement": "IC50", "setting": "second compound 10 µM", "result": "< 0.316", "unit": "nM"}, {"measurement": "viability, T/C", "setting": "second compound 0.0316 µM, first compound 0.000316 µM", "result": 97.4, "unit": "%"}, {"measurement": "viability, T/C", "setting": "second compound 0.0316 µM, first compound 0.001 µM", "result": 101, "unit": "%"}, {"measurement": "viability, T/C", "setting": "second compound 0.0316 µM, first compound 0.00316 µM", "result": 110, "unit": "%"}, {"measurement": "viability, T/C", "setting": "second compound 0.0316 µM, first compound 0.01 µM", "result": 104, "unit": "%"}, {"measurement": "viability, T/C", "setting": "second compound 0.0316 µM, first compound 0.0316 µM", "result": 113, "unit": "%"}, {"measurement": "viability, T/C", "setting": "second compound 0.0316 µM, first compound 0.1 µM", "result": 104, "unit": "%"}, {"measurement": "viability, T/C", "setting": "second compound 0.1 µM, first compound 0.000316 µM", "result": 79.5, "unit": "%"}, {"measurement": "viability, T/C", "setting": "second compound 0.1 µM, first compound 0.001 µM", "result": 92.6, "unit": "%"}, {"measurement": "viability, T/C", "setting": "second compound 0.1 µM, first compound 0.00316 µM", "result": 103, "unit": "%"}, {"measurement": "viability, T/C", "setting": "second compound 0.1 µM, first compound 0.01 µM", "result": 87.4, "unit": "%"}, {"measurement": "viability, T/C", "setting": "second compound 0.1 µM, first compound 0.0316 µM", "result": 95.9, "unit": "%"}, {"measurement": "viability, T/C", "setting": "second compound 0.1 µM, first compound 0.1 µM", "result": 83.8, "unit": "%"}, {"measurement": "viability, T/C", "setting": "second compound 0.316 µM, first compound 0.000316 µM", "result": 5.88, "unit": "%"}, {"measurement": "viability, T/C", "setting": "second compound 0.316 µM, first compound 0.001 µM", "result": 9.73, "unit": "%"}, {"measurement": "viability, T/C", "setting": "second compound 0.316 µM, first compound 0.00316 µM", "result": 10.4, "unit": "%"}, {"measurement": "viability, T/C", "setting": "second compound 0.316 µM, first compound 0.01 µM", "result": 9.1, "unit": "%"}, {"measurement": "viability, T/C", "setting": "second compound 0.316 µM, first compound 0.0316 µM", "result": 9.56, "unit": "%"}, {"measurement": "viability, T/C", "setting": "second compound 0.316 µM, first compound 0.1 µM", "result": 8.15, "unit": "%"}, {"measurement": "viability, T/C", "setting": "second compound 1 µM, first compound 0.000316 µM", "result": 0.17, "unit": "%"}, {"measurement": "viability, T/C", "setting": "second compound 1 µM, first compound 0.001 µM", "result": 0.23, "unit": "%"}, {"measurement": "viability, T/C", "setting": "second compound 1 µM, first compound 0.00316 µM", "result": 0.15, "unit": "%"}, {"measurement": "viability, T/C", "setting": "second compound 1 µM, first compound 0.01 µM", "result": 0.12, "unit": "%"}, {"measurement": "viability, T/C", "setting": "second compound 1 µM, first compound 0.0316 µM", "result": 4.07, "unit": "%"}, {"measurement": "viability, T/C", "setting": "second compound 1 µM, first compound 0.1 µM", "result": 0.15, "unit": "%"}, {"measurement": "viability, T/C", "setting": "second compound 3.16 µM, first compound 0.000316 µM", "result": 0.48, "unit": "%"}, {"measurement": "viability, T/C", "setting": "second compound 3.16 µM, first compound 0.001 µM", "result": 0.5, "unit": "%"}, {"measurement": "viability, T/C", "setting": "second compound 3.16 µM, first compound 0.00316 µM", "result": 0.41, "unit": "%"}, {"measurement": "viability, T/C", "setting": "second compound 3.16 µM, first compound 0.01 µM", "result": 0.33, "unit": "%"}, {"measurement": "viability, T/C", "setting": "second compound 3.16 µM, first compound 0.0316 µM", "result": 0.23, "unit": "%"}, {"measurement": "viability, T/C", "setting": "second compound 3.16 µM, first compound 0.1 µM", "result": 0.84, "unit": "%"}, {"measurement": "viability, T/C", "setting": "second compound 10 µM, first compound 0.000316 µM", "result": 0.23, "unit": "%"}, {"measurement": "viability, T/C", "setting": "second compound 10 µM, first compound 0.001 µM", "result": 1.99, "unit": "%"}, {"measurement": "viability, T/C", "setting": "second compound 10 µM, first compound 0.00316 µM", "result": 0.17, "unit": "%"}, {"measurement": "viability, T/C", "setting": "second compound 10 µM, first compound 0.01 µM", "result": 0.22, "unit": "%"}, {"measurement": "viability, T/C", "setting": "second compound 10 µM, first compound 0.0316 µM", "result": 0.17, "unit": "%"}, {"measurement": "viability, T/C", "setting": "second compound 10 µM, first compound 0.1 µM", "result": 0.18, "unit": "%"}]}]}
